Data set [1] can be described thus: Pharmacokinetic Test in Rats (Inhalation Administration). Conditions: rat, in vivo, inhaled or intranasal, male SD rats, single dose 0.03 mg/kg; for Cmax / AUC(0-t): lung tissue; for Kp: read-out: Lung AUC0-t/plasma AUC0-t; for AUC(0-t): read-out: Lung AUC0-t. As for the experimental part:
4: Pharmacokinetic Test in Rats (Inhalation Administration)
The samples were analyzed quantitatively by LC-MS/MS.

The conditions of data set [2]: 12-week, PATENT-1, riociguat group, cited from earlier work.

As for `CC(C)(Cc1csc([C@]2(C)C(=O)Nc3nc(-n4c(=O)n(Cc5ccccc5F)c5cc(F)ccc54)nc(N)c32)n1)C(=O)O` [Compound 38-1], in data set [1], the Cmax (usually the peak of the concentration-time curve) is 1740 ng/mL and the Kp was 83.6.

For `CC(C)(Cc1csc(C2(C)C(=O)Nc3nc(-n4nc(CCC(F)(F)C(F)(F)F)c5ncc(F)cc54)nc(N)c32)n1)C(=O)O` (single isomer, unassigned) [Compound 37-1], in data set [1], the highest level (Cmax) was 1730 ng/mL and the AUC(0-t) was found to be 3280 ng·h/mL.

As for `CC(C)(Cc1cccc([C@@]2(C)C(=O)Nc3nc(-c4nn(CCC(F)(F)C(F)(F)F)c5cc(Cl)cnc45)nc(N)c32)c1)C(=O)O` [Compound 6-1], in data set [1], the highest level (Cmax) was 2820 ng/mL, the AUC(0-t) turned out to be 5170 ng·h/mL and the Kp is 659.

For the compound `CC(C)(Cc1csc([C@]2(C)C(=O)Nc3nc(-c4nc(Cc5ccccc5F)n5ncccc45)nc(N)c32)n1)C(=O)O` [Compound 19-1], in data set [1], the Cmax amounted to 2840 ng/mL, the AUC(0-t) turned out to be 12200 ng·h/mL and the Kp came to 245.

As to `CC(C)(Cc1csc([C@]2(C)C(=O)Nc3nc(-c4nc(CCC(F)(F)C(F)(F)F)n5cc(F)ccc45)nc(N)c32)n1)C(=O)O` [Compound 45-1], in data set [1], the Cmax came out at 2850 ng/mL, the AUC(0-t) is 4500 ng·h/mL and the Kp amounted to 43.4.

Regarding `CC(C)(Cc1csc([C@]2(C)C(=O)Nc3nc(-n4c(=O)n(CCC(F)(F)C(F)(F)F)c5cc(F)ccc54)nc(N)c32)n1)C(=O)O` [Compound 31-1], in data set [1], the Cmax is 1180 ng/mL, the AUC(0-t) was found to be 608 ng·h/mL and the Kp stood at 97.9.

For the compound `CC(C)(Cc1csc(C2(C)C(=O)Nc3nc(-n4nc(Cc5ccccc5F)c5ncc(F)cc54)nc(N)c32)n1)C(=O)O` (single isomer, unassigned) [Compound 35-1], in data set [1], the Cmax turned out to be 2540 ng/mL and the AUC(0-t) amounted to 5430 ng·h/mL.

For the compound `CC(C)(Cc1csc([C@]2(C)C(=O)Nc3nc(-c4nc(CCC(F)(F)C(F)(F)F)n5ncccc45)nc(N)c32)n1)C(=O)O` [Compound 3-1], in data set [1], the Cmax was 2980 ng/mL, the AUC(0-t) turned out to be 3630 ng·h/mL and the Kp was 65.

Take `CC(C)(Cc1csc([C@]2(C)C(=O)Nc3nc(-n4nc(CCC(F)(F)C(F)(F)F)c5cc(Cl)ccc54)nc(N)c32)n1)C(=O)O` (single isomer, unassigned) [Compound 4-1]: in data set [1], the Cmax stood at 2350 ng/mL, the AUC(0-t) was determined as 2460 ng·h/mL and the Kp turned out to be 77.1.

Turning to `CC(C)(Cc1csc(C2(C)C(=O)Nc3nc(-n4nc(Cc5cccc(F)c5F)c5ncc(F)cc54)nc(N)c32)n1)C(=O)O` (single isomer, unassigned) [Compound 36-1], in data set [1], the peak level (Cmax) was 4070 ng/mL, the AUC(0-t) was 10100 ng·h/mL and the Kp is 49.1.

As for `COC(=O)N(C)c1c(N)nc(-c2nn(Cc3ccccc3F)c3ncccc23)nc1N` [riociguat, Riociguat], in data set [2] (placebo 2%), the anemia is recorded as 7% and the gastroesophageal reflux disease is given as 5%. For the same compound, the diarrhea in data set [2] (placebo 8%) is 12%.

Turning to `CC(C)(Cc1csc([C@]2(C)C(=O)Nc3nc(-n4nc(CCC(F)(F)C(F)(F)F)c5cc(F)ccc54)nc(N)c32)n1)C(=O)O` [Compound 17-1], in data set [1], the Cmax was found to be 1750 ng/mL, the AUC(0-t) came out at 2020 ng·h/mL and the Kp turned out to be 48.4.

Consider `CC(C)(Cc1csc([C@]2(C)C(=O)Nc3nc(-c4nn(CCC(F)(F)C(F)(F)F)c5ncccc45)nc(N)c32)n1)C(=O)O` [Control compound 1, reference compound], for which, in data set [1], the Cmax worked out at 273 ng/mL and the AUC(0-t) was 220 ng·h/mL.

The values are drawn from patent US20260365673A1, “PYRROLO[2,3-D]PYRIMIDIN-4-AMINE DERIVATIVE AND USE THEREOF IN MEDICINE” (HAISCO PHARMACEUTICAL GROUP CO., LTD., priority 2023, published 2026).
